Ends that are not written are not given here.
Assay: Peptide partitioning by ITC
Format: physicochemical
Details: 37°C
Protocol: Lipid stock solutions of POPC and POPG were prepared in chloroform∶methanol (9∶1). Mixtures of POPC∶POPG (3∶1) were prepared and the organic solvent was evaporated under a gentle stream of nitrogen. The lipid films were kept in vacuum (P<0.1 Pa) overnight in order to remove the residual solvent. Buffer containing 10 mM HEPES and 100 mM sodium chloride (pH 7.4) was added to the lipid films, and they were hydrated for 60 min followed by extrusion through 100 nm using an Avanti mini-extruder. Dynamic Light Scattering (DLS, Brookhaven Instrument Corporation, ZetaPALS) was used for measuring the liposome size distribution. The effective lipid concentration was determined by inductively coupled plasma atomic emission spectroscopy (ICP-AES Vista AX, Varian).
The partitioning of AMPs onto lipid membranes was investigated by isothermal titration calorimetry (ITC, iTC200, Microcal, 204 µL cell volume). For the peptide analogues MPX, Ala1 and Ala14, 10 mM […] (3∶1) LUVs were injected (19×2 µL) into a 20 µM peptide solution at T = 37°C. The speed of the stirrer was 1000 rpms, and all titration were initiated with a 0.5 µL pre-injection. The heat-traces were integrated using custom made software, and the heat of partitioning was analysed using a partitioning isotherm based on Gouy-Chapman-Stern description of the electrostatic interaction of the peptide and membrane, [32]. The effective charge of the peptide (zeff), the partitioning coefficient of insertion (Kins), the molar enthalpy of partitioning ( [drawing 4] ), and the heat of dilution (qdil) were extracted as fitting parameters. The effective partitioning coefficient was derived as [drawing 5] where F is Faradays constant, [drawing 6] is the electrostatic potential evaluated at the interface of a fully charged membrane (25mol% negative charge before insertion of the first peptide), and R is the ideal gas constant. The instrument was electrically calibrated, and blank titration of LUVs into buffer was performed to ensure that heat of dilution could be modelled as a constant in the data analysis. Each titration was conducted in triplicates.

In the case of “INWKGIAAMAKKLL-NH2 [MPX, mastoparan X, reference compound]”, the “effective charge (zeff) of the peptide” value (10 mM POPC∶POPG (3∶1) 100 nm LUVs injected (19×2 µL) into 20 µM peptide, pH 7.4, Gouy-Chapman-Stern fit, triplicates) is reported as 2.5±0.1, the “partition coefficient of insertion Kins/10^5” value (10 mM POPC∶POPG (3∶1) LUVs into 20 µM peptide, pH 7.4, Gouy-Chapman-Stern fit, value is Kins divided by 10^5, triplicates) is reported as 4.2±0.2 and the “molar enthalpy of partitioning” value (10 mM POPC∶POPG (3∶1) LUVs into 20 µM peptide, pH 7.4, triplicates) is reported as -5.74 ± 0.072 kcal/mol. For the same substance, the “effective partition coefficient Keff/10^8” value (derived from Kins, zeff and the surface potential of fully charged membrane (25 mol% negative charge), value is Keff divided by 10^8) was 1.6±0.2.

From PMC3951324, “Side Chain Hydrophobicity Modulates Therapeutic Activity and Membrane Selectivity of Antimicrobial Peptide Mastoparan-X” (PLoS ONE, 2014)
